Laboratory results taken from patent US8846699B2, “Quinazoline derivatives as a multiplex inhibitor and method for the preparation thereof” (Hanmi Pharm. Co., Ltd., priority 2005, dated 2014).

Columns and labels:
[1] = tested on: breast cancer cell line, SK-Br3; assay: Inhibitory effect on growth of cancer cell line SK-Br3, SRB; format: cell-based; details: overexpressed EGFR2 (HER-2)
Source text: (§1) A skin cancer cell line, A431 (ATCC: CRL-1555), a breast cancer cell line, SK-Br3 (ATCC: HTB-30), and a colon and rectal cancer cell line, SW-620 (ATCC: CCL-227) were used to test the degrees of cancer cell growth inhibition using a culture medium, DEME (Dulbecco's Modified Eagle's Medium, JBI) including 4.5 g/l of glucose and 1.5 g/l of sodium bicarbonate and supplemented with 10% FBS (fetal bovine serum, JBI).
(§2) The cancer cell lines stored in a liquid nitrogen tank were each quickly thawed at 37° C., and centrifuged to remove the medium. The resulting cell pellet was mixed with a culture medium, incubated in a culture flask at 37° C. under 5% CO2 for 2 to 3 days, and the medium was removed. The remaining cells were washed with DPBS (Dulbecco's Phosphate Buffered Saline, JBI) and separated from the flask by using Trypsin-EDTA solution, and the separated cells were diluted with a culture medium to a concentration of 1.0×10^6 cells/ml in case of A431 and SW-620, and 2.0×10^6 cells/ml in case of SK-Br3. 100 μl of the diluted cell solution was added to each well of a 96-well plate, which was incubated at 37° C. under 5% CO2 for 1 day.
(§3) In case that the test compound was not soluble in DMSO, a small amount of 1% HCl was added thereto and treated in a 40° C. water bath for 30 mins until complete dissolution was attained. The test compound solution was diluted with a culture medium to a final concentration of 10 μM, and then diluted 10 times serially to 10^−4. The final concentration of DMSO was less than 1%, and the control compounds of Test Example 1 were used at a concentration of 0.0001 to 10 μM.
(§4) The medium was removed from each well of the 96-well microplate, 100 μl of a diluted test compound solution was added to each well holding cultured cells, and the microplate was incubated at 37° C. under 5% CO2 for 72 hours. After removing the medium from the plate, 50 μl of 10% trichloroacetic acid was added to each well, and the plate was kept at 37° C. for 1 hour to fix the cells to the bottom of the plate. 10% trichloroacetic acid was removed from each well, the plate was dried, 100 μl of an SRB (Sulforhodamine-B, Sigma) dye solution was added thereto, and reacted for 10 mins. The SRB dye solution was prepared by dissolving SRB in 1% acetic acid to a concentration of 0.4%. After removing the dye solution, the plate was washed with water, and dried. When the dye solution was not removed by water, 1% acetic acid was used.
(§5) 150 μl of 10 mM trisma base (Sigma) was added to each well, and the absorbance at 570 nm was determined with a microplate reader (Molecular device).

VEGFR2 (KDR) = VEGFR2 (KDR) (Homo sapiens (Human), UniProt P35968); assay: VEGFR2 (KDR) enzyme assay, fluorescence polarization; format: biochemical; details: 5 μM ATP, poly(Glu, Tyr) substrate
VEGFR2 (KDR), sequence (P35968 20-1356): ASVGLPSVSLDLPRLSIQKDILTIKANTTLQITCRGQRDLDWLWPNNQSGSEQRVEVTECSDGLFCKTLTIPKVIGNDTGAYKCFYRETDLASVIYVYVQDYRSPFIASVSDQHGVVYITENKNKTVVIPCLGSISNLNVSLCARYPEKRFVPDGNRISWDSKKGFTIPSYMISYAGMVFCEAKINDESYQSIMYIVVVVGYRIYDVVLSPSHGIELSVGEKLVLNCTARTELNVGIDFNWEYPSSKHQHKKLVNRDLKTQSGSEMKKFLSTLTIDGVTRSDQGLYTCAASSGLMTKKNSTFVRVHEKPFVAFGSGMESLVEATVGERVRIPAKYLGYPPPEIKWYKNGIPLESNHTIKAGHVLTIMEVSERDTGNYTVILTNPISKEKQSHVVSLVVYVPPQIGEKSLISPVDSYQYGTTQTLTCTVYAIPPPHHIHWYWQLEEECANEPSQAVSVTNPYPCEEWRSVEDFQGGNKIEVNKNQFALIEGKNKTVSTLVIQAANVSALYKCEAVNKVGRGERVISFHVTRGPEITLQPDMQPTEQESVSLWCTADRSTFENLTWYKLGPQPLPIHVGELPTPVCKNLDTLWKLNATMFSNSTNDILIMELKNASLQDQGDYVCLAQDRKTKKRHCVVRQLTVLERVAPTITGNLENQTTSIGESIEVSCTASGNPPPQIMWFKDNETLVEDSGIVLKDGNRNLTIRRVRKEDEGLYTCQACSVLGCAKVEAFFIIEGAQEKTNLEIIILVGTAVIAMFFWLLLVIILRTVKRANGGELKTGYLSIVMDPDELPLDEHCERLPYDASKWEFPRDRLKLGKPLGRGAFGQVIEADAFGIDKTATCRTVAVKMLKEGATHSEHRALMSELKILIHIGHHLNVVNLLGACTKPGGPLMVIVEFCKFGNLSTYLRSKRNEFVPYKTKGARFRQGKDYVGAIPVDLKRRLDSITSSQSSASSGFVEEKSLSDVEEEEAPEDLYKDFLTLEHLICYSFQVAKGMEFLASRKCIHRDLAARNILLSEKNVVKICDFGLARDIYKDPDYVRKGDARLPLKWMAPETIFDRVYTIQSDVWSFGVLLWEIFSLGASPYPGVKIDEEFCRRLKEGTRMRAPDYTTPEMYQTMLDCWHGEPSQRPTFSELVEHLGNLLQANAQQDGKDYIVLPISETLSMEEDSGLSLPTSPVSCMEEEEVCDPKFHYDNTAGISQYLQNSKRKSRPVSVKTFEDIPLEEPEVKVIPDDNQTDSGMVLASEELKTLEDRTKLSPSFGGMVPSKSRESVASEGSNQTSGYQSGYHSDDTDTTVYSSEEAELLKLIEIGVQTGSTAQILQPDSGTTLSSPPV
Procedure: VEGFR2 (KDR, Proquinase) enzyme assay (auto-phosphorylation assay) was carried out by using Tyrosine Kinase Assay Kit Green (Panvera). The entire assay was conducted in accordance with VEGFR PTK inhibitor cellular activity test S.O.P.
A typical kinase inhibition reaction requires a protein tyrosine kinase, a suitable buffer solution system, a peptide substrate and ATP. In the present VEGFR tyrosine kinase assay, a buffer solution system containing 20 mM HEPES (pH 7.4), 5 mM MgCl2 and 2 mM MnCl2; 50 μM Na3VO4; 200 ng/10 μl VEGFR (Proquinase); 5 μM ATP; and 10 ng/ml poly(Glu, Tyr) (4:1, Sigma) as a substrate were used.
The compounds of Test Example 1 were used as control compounds at a concentration of 0.0001 to 10 μM. After 10 min, 10 μl of poly(Glu, Tyr) as a substrate was added to each well, and 10 μl of ATP was added thereto to initiate kinase reaction. The plate was incubated at room temperature for 1 hour, and 10 μl of 100 mM EDTA was added to each well to terminate the kinase reaction.
The added EDTA was mixed for 5 min. Thereafter, 10 μl of 10× anti-phosphotyrosine antibody (Panvera), 10 μl of 10×PTK Green Tracer (Panvera) and 30 μl of FP dilution buffer (Panvera) were added thereto, and the plate was incubated in a dark room at room temperature for 30 min.

[2] = tested on: Human Umbilical Vein Endothelial Cell (HUVEC); assay: Inhibitory effect on growth of human umbilical vein endothelial cell (HUVEC), MTS; format: cell-based; details: 10 ng/ml VEGF, absorbance 490 nm
Procedure: HUVECs (Young Science, Inc) were suspended in a culture medium, EBM-2 (Endothelial Basic Media, Cambrex) supplemented with 2% bovine serum (Cambrex) and auxiliary additives for HUVEC culture (e.g., EGF, VEGF, FGF, etc., Cambrex), inoculated into a culture flask coated with 1% gelatin, and incubated in an incubator at 37° C. under 5% CO2 and 100% humidity.
100 μl of 5% bovine serum medium containing 10 ng/ml of vascular endothelial growth factor (VEGF) and auxiliary additives, while excluding other growth factors was added to each well of a 96-well plate. […] DMSO (Dimethylsulfoxide) was used to dissolve the test compounds, and the final concentration of DMSO was less than 1%.
100 μl of the diluted cell solution was added to each well of the 96-well plate, which was incubated in an incubator for 96 hours.
Then, 20 μl of MTS ([…], Promega) solution was added to each well of the plate, and the plate was incubated in an incubator for 4 hours to induce discoloration. After 4 hours, the pellets were dissolved by way of a thorough shaking, and the absorbance at 490 nm was determined.

EGFR1 (HER-1) = EGFR1 (HER-1) (Homo sapiens (Human), UniProt P00533); assay: EGFR1 (HER-1) enzyme assay, fluorescence polarization; format: biochemical; details: 100 μM ATP, poly(Glu, Tyr) substrate
EGFR1 (HER-1), sequence (P00533 25-1210): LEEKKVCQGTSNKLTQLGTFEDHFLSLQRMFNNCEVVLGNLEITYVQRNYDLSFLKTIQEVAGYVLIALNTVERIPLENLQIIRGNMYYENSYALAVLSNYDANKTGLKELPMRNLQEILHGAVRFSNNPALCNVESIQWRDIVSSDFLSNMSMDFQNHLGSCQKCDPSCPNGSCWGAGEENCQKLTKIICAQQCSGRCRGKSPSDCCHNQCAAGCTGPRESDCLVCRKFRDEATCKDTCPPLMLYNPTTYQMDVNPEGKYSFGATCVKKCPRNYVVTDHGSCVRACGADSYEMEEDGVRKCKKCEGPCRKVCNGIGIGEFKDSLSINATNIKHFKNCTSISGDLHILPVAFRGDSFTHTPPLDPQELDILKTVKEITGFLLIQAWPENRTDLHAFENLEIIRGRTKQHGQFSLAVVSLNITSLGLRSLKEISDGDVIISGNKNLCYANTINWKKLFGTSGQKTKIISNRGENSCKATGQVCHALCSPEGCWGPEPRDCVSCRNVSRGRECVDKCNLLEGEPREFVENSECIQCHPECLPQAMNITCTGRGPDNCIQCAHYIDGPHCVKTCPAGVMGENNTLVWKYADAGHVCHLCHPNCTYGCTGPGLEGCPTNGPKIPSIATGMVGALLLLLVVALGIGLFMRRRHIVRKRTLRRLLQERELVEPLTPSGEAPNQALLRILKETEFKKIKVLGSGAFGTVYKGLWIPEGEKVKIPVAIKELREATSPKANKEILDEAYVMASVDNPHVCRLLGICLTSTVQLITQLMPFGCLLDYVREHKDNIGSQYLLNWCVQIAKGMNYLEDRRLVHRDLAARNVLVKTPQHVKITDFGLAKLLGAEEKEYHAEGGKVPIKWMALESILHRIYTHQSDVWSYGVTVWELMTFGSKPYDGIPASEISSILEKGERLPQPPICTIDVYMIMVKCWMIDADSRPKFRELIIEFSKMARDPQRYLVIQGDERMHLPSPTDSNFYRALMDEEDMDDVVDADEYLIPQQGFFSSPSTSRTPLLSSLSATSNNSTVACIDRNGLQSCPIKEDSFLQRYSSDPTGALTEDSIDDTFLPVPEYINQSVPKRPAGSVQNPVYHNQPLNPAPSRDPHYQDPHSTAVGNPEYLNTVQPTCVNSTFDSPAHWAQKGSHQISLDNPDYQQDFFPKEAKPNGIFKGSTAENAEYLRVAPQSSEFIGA

[3] = tested on: colon and rectal cancer cell line, SW-620; assay: Inhibitory effect on growth of cancer cell line SW-620, SRB; format: cell-based; details: not having overexpressed EGFR and EGFR2
Source text: as §1, §2, §3, §4, §5

[4] = tested on: skin cancer cell line, A431; assay: Inhibitory effect on growth of cancer cell line A431, SRB; format: cell-based; details: overexpressed EGFR1 (HER-1)
Source text: as §1, §2, §3, §4, §5

Row | Compound | IC50 ([1]; Homo sapiens, SK-BR-3, 72 h) [nM] | IC50 (VEGFR2 (KDR)) [nM] | IC50 ([2]; Homo sapiens, 96 h) [nM] | IC50 (EGFR1 (HER-1)) [nM] | IC50 ([3]; Homo sapiens, 72 h) [nM] | IC50 ([4]; Homo sapiens, A-431, 72 h) [nM] | IC50 ([1]; 72 hours) [nM] | IC50 ([2]; 96 hours) [nM] | IC50 ([3]; 72 hours) [nM] | IC50 ([4]; 72 hours) [nM]
1 | C=CC(=O)Nc1cc2c(Nc3ccc(Br)cc3F)ncnc2cc1OCC1CCN(C(C)=O)CC1 [Example 1, N-[7-(1-acetyl-piperidin-4-ylmethoxy)-4-(4-bromo-2-fluoro-phenylamino)-quinazolin-6-yl]-acrylamide] | 283 | 131 | 85 | 3 | 3060 | 48 |  |  |  | 
2 | C=CC(=O)Nc1cc2c(Nc3ccc(Br)cc3F)ncnc2cc1OCC1CCN(C(=O)C(F)(F)F)CC1 [Example 2, N-{4-(4-bromo-2-fluoro-phenylamino)-7-[1-(2,2,2-trifluoro-acetyl)-piperidin-4-ylmethoxy]-quinazolin-6-yl}-acrylamide] | 240 | 250 | 96 | 47 | 4580 | 82 |  |  |  | 
3 | C=CC(=O)Nc1cc2c(Nc3ccc(Br)cc3F)ncnc2cc1OCC1CCN(C(=O)CS(C)(=O)=O)CC1 [Example 3, N-{4-(4-bromo-2-fluoro-phenylamino)-7-[1-(2-methanesulfonyl-acetyl)-piperidin-4-ylmethoxy]-quinazolin-6-yl}-acrylamide] | 216 | 108 | 90 | 26 | 6310 | 48 |  |  |  | 
4 | C=CC(=O)Nc1cc2c(Nc3ccc(Br)cc3F)ncnc2cc1OCCNS(C)(=O)=O [Example 33, N-[4-(4-bromo-2-fluoro-phenylamino)-7-(2-methanesulfonylamino-ethoxy)-quinazolin-6-yl]-acrylamide] | 167 | 369 | 390 |  | 10000 | 34 |  |  |  | 
5 | C=CC(=O)Nc1cc2c(Nc3ccc(Br)cc3F)ncnc2cc1OCCNC(=O)CCN [Example 62, N-[7-[2-(3-amino-propionylamino)-ethoxy]-4-(4-bromo-2-fluoro-phenylamino)-quinazolin-6-yl]-acrylamide] | 369 | 749 | 697 |  | 724 |  |  |  |  | 
6 | C=CC(=O)Nc1cc2c(Nc3ccc(Br)cc3F)ncnc2cc1OCCNC(=O)c1ccc[nH]1 [Example 99, 1H-pyrrole-2-carboxylic acid {2-[6-acryloylamino-4-(4-bromo-2-fluoro-phenylamino)-quinazolin-7-yloxy]-ethyl}-amide] | 3310 | 997 | 989 |  | 10000 | 408 |  |  |  | 
7 | C=CC(=O)Nc1cc2c(Nc3ccc(Cl)cc3F)ncnc2cc1OCCNC(C)=O [Example 112, N-[7-(2-acetylamino-ethoxy)-4-(4-chloro-2-fluoro-phenylamino)-quinazolin-6-yl]-acrylamide] | 100 | 114 | 189 |  | 9560 | 19 |  |  |  | 
8 | C=CC(=O)Nc1cc2c(Nc3c(F)cc(Br)cc3F)ncnc2cc1OCCNC(C)=O [Example 120, N-[7-(2-acetylamino-ethoxy)-4-(4-bromo-2,6-difluoro-phenylamino)-quinazolin-6-yl]-acrylamide] | 186 | 127 | 269 |  | 10000 | 26 |  |  |  | 
9 | C=CC(=O)Nc1cc2c(Nc3ccc(Br)cc3F)ncnc2cc1OCCNC(=O)C(CO)N(C)C (stereo not shown) [Example 162, N-{4-(4-bromo-2-fluoro-phenylamino)-7-[2-(2-dimethylamino-3-hydroxy-propionylamino)-ethoxy]-quinazolin-6-yl}-acrylamide] | 141 | 797 | 882 |  | 10000 | 154 |  |  |  | 
10 | N-{2-[6-acryloylamino-4-(4-bromo-2-fluoro-phenylamino)-quinazolin-7-yloxy]-ethyl}-malonic acid ethylester [Example 69] |  | 985 |  |  |  |  | 654 | 954 | 10000 | 238
